Source: paper PMC9699089 (Pathogens, 2022)
Read-outs that look alike come from different tables or passages of the source.

Tests used:
[1] = test system: human telomeric sequence F21T G-quadruplex; experiment: FRET melting assay, F21T; format: binding; conditions: compound 2 μM, oligonucleotide 0.2 μM, K+ conditions
[2] = biological target: duplex-forming sequence DK66; experiment: Native electrospray mass spectrometry, DK66; format: binding; parameters: key to Kd DK66, stoichiometry 2 (Kd2) / Kd DK66, stoichiometry 1 (Kd1): n.b.: no binding detected; <LOQ: binding detected but below limit of quantitation; conditions: 100 mM TMAA, 1 mM KCl; for Kd: read-out: Kd DK66, stoichiometry 1 (Kd1); for Kd DK66, stoichiometry 2 (Kd2): 2:1 ligand:DNA complex
Procedure: (§1) Oligonucleotides were purchased in the lyophilized form from Eurogentec (RP-cartridge purification), and dissolved at 1 mM in pure water. TMAA (1 M) was purchased from Santa Cruz Biotechnology and potassium chloride (purity > 99.99%) from Sigma Aldrich (Sigma Aldrich, Saint-Quentin-Fallavier, France). The sample solutions contained 10 µM oligonucleotide and 10 (for CD only) or 20 µM ligand, in a 100 mM TMAA, 1mM KCl buffer. The solutions were incubated overnight at 4 °C before analysis.
(§2) The sample solutions were injected at a 10 µM strand concentration on an Agilent 6560 DTIMS-Q-TOF instrument (Agilent Technologies, Santa Clara, CA, USA), equipped with a dual-ESI source operated in the negative ion mode in soft conditions. The following parameters were used: fragmentor 320 V, trap fill time 1000 µs, trap release time 200 µs, trap entrance grid delta 2 V. The drift tube was filled with helium and the pressure was fixed at 3.89 ± 0.01 Torr (measured by a capacitance diaphragm gauge CDG-500, Agilent Technologies).
(§3) The MS data were extracted using the IM-MS Browser (v. B.08.00; Agilent Technologies). The peak area intensity of each species at the 5- charge state was extracted from their corresponding m/z range (encompassing potassium adducts), and baseline subtracted. The concentrations of all species (free DNA, free ligands, and complexes) and corresponding dissociation constants were determined as previously described.

[3] = test system: Plasmodium telomeric sequence FPf8T G-quadruplex; experiment: FRET melting assay, FPf8T; format: binding, Plasmodium falciparum; conditions: compound 2 μM, oligonucleotide 0.2 μM, K+ conditions
[4] = biological target: G4-forming oligonucleotide Pf8 (d[(G3T2CA)3G3]); experiment: Native electrospray mass spectrometry, Pf8; format: binding, Plasmodium; conditions: 100 mM TMAA, 1 mM KCl
Procedure: as §1, §2, §3

[5] = Cytotoxicity evaluation, MTT assay; format: cell-based, human; conditions: human
How it was run: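 MTT read-out in duplicate; wells checked for precipitate, then MTT 0.5 mg/mL in FCS-free medium added, formazan dissolved in DMSO and absorbance read at 570 nm (630 nm reference). Viability expressed as percentage of untreated cells; CC50 derived from dose-response curve.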

[6] = test system: Plasmodium telomeric sequence FPf1T G-quadruplex; experiment: FRET melting assay, FPf1T; format: binding, Plasmodium falciparum; conditions: compound 2 μM, oligonucleotide 0.2 μM, K+ conditions
[7] = test system: T. brucei brucei AnTat 1.9; experiment: In vitro antitrypanosomal activity, Alamar Blue assay; format: cell-based, Trypanosoma brucei brucei; conditions: Trypanosoma brucei, slender bloodstream trypomastigotes, AnTat 1.9 strain; mean +/- SD of three independent experiments; read-out: Trypanosoma brucei brucei IC50 Values Trypanos Antat 1.9
How it was run: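 Bloodstream T. brucei brucei AnTat 1.9 cultured in supplemented MEM with Earle's salts and exposed to compounds in duplicate for 69 h at 37 °C. Alamar Blue then added for 5 h, with fluorescence read at ex 530/em 590 nm.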

[8] = 1:1 ligand:DNA complex, read-out: Kd Pf8, stoichiometry 1 (Kd1)
[9] = 2:1 ligand:DNA complex, read-out: Kd Pf8, stoichiometry 2 (Kd2)

SMILES: c1ccc(-c2cc(CNCCc3ccccn3)nc3c2ccc2c(-c4ccccc4)cc(CNCCc4ccccn4)nc23)cc1 [Compound 1m]
- ΔTm F21T [1]: 1.0 °C
- Kd DK66, stoichiometry 1 (Kd1) ([2]; 1:1 ligand:DNA complex): n.b.
- ΔTm FPf8T [3]: 1.0 °C
- Kd Pf8, stoichiometry 1 (Kd1) ([4]; 1:1 ligand:DNA complex): very weakly bound
- Kd [4, 8]: 83 µM
- CC50 at 72 h [5]: 4.34 ± 0.31 µM
- ΔTm FPf1T [6]: 1.3 °C

SMILES: CN(C)CCCCCNCc1cc(-c2ccccc2)c2ccc3c(-c4ccccc4)cc(CNCCCCCN(C)C)nc3c2n1 [Compound 1d, 2,9-Bis[(5-dimethylaminopentyl)aminomethyl]-4,7-diphenyl-1,10-phenanthroline]
- ΔTm F21T [1]: 18.1 °C
- Kd ([2]; 1:1 ligand:DNA complex): 53 µM
- Kd DK66, stoichiometry 2 (Kd2) [2]: n.b.
- ΔTm FPf8T [3]: 20.5 °C
- Kd [4, 8]: 3 µM
- Kd [4, 9]: 16 µM
- IC50 [7]: 1420 ± 100 nM
- CC50 at 72 h [5]: 3.35 ± 0.33 µM
- ΔTm FPf1T [6]: 18.8 °C

SMILES: CN(C)CCCCNCc1cc(-c2ccccc2)c2ccc3c(-c4ccccc4)cc(CNCCCCN(C)C)nc3c2n1 [Compound 1c, 2,9-Bis[(4-dimethylaminobutyl)aminomethyl]-4,7-diphenyl-1,10-phenanthroline]
- ΔTm F21T [1]: 13.2 °C
- Kd ([2]; 1:1 ligand:DNA complex): 110 µM
- Kd DK66, stoichiometry 2 (Kd2) [2]: n.b.
- ΔTm FPf8T [3]: 10.2 °C
- Kd [4, 8]: 3 µM
- Kd [4, 9]: 50 µM
- IC50 [7]: 860 ± 160 nM
- CC50 at 72 h [5]: 10.4 ± 0.7 µM
- ΔTm FPf1T [6]: 8.9 °C

SMILES: c1ccc(-c2cc(CNCCCN3CCCC3)nc3c2ccc2c(-c4ccccc4)cc(CNCCCN4CCCC4)nc23)cc1 [Compound 1l]
- ΔTm F21T [1]: 14.5 °C
- Kd ([2]; 1:1 ligand:DNA complex): 55 µM
- Kd DK66, stoichiometry 2 (Kd2) [2]: n.b.
- ΔTm FPf8T [3]: 14.2 °C
- Kd [4, 8]: 2 µM
- Kd [4, 9]: 59 µM
- IC50 [7]: 1130 ± 60 nM
- CC50 at 72 h [5]: 15.2 ± 1.56 µM
- ΔTm FPf1T [6]: 15.4 °C
